Results published in US11180521B2, “Nicotinamide riboside analogs, pharmaceutical compositions, and uses thereof” (Metro International Biotech, LLC, priority 2018, dated 2021).

Experiments:
[1] = tested on: NAD, NAAD, NAM, and NMN levels in liver; assay: PK/PD duration of effect study, single oral gavage dose: NAD, NAAD, NAM and NMN levels in liver; format: in vivo, C57BL/6 mice; parameters: key to NAAD concentration: BQL: Below quantitation limit; BDL: Below Detection Limit, No Peak Detected; conditions: for NAAD concentration: pre-dose BDL
Method: (§1) Transcyclohexyl nicotinic acid riboside (NaR) dimer was administered by oral gavage at a dose of 500 mg/kg in an Ethanol/PBS, pH 7.4/PEG400 (10/30/60) vehicle. The dosing volume was 5 ml/kg at a solution concentration of 100 mg/ml. The solution concentration was increased for the presence of counterion.
(§2) Animals were fasted for 16 hours prior to dosing. Samples were collected pre-dose and at 0.25, 0.75, 1, 2, 4, 8 and 24 hr post dosing. Following euthanasia, the entire liver and skeletal muscle (gastrocnemius with attached soleus muscle, bilateral) were rinsed with 0.9% saline, and frozen for later bioanalysis. Samples were maintained frozen at −80° C. until bioanalysis.
(§3) Samples were thawed, homogenized, extracted and analyzed by LC-MS on the same day. The LC used was a Shimadzu Nexera UPLC, and the mass spectrometer was an AB Sciex Qtrap 6500. Specimens were analyzed for levels of administered compound (transcyclohexyl NaR dimer), as well as for levels of NAD, NAAD, NAM, and NMN by the method of standard addition, to detect alterations from the basal levels of the analytes. Calibration standards for quantifying administered compound were prepared using transcyclohexyl NaR dimer in mouse liver or skeletal muscle homogenates. Corresponding standards for quantifying other metabolites were also prepared. Data are calculated as the mean concentration from n=6 animals per time point.

[2] = PK/PD duration of effect study, single oral gavage dose: administered compound level in liver; format: in vivo, C57BL/6 mice; parameters: key to transcyclohexyl NaR dimer concentration: BQL: Below quantitation limit; BDL: Below Detection Limit, No Peak Detected
Method: as §1, §2, §3

For `CC(=O)OC[C@H]1O[C@@H]([n+]2cccc(C(=O)O[C@H]3CC[C@H](OC(=O)c4ccc[n+]([C@@H]5O[C@H](COC(C)=O)[C@@H](OC(C)=O)[C@H]5OC(C)=O)c4)CC3)c2)[C@H](OC(C)=O)[C@@H]1OC(C)=O` [transcyclohexyl NaR dimer, Transcyclohexyl nicotinic acid riboside (NaR) dimer], the NAM concentration ([1]; 0.25 hr after 500 mg/kg oral gavage, pre-dose 52.5) was 58.7 µg/g, the NAD concentration ([1]; 0.25 hr after 500 mg/kg oral gavage, pre-dose 713) was 623 µg/g and the NAAD concentration ([1]; 0.25 hr after 500 mg/kg oral gavage) was “BDL”. It also gave an NMN concentration ([1]; 0.75 hr after 500 mg/kg oral gavage, pre-dose 0.00637) of 0.00977 mmol/kg, an NAM concentration ([1]; 0.75 hr after 500 mg/kg oral gavage, pre-dose 0.430) of 1.69 mmol/kg and an NAD concentration ([1]; 0.75 hr after 500 mg/kg oral gavage, pre-dose 1.08) of 0.493 mmol/kg. For the same compound, the NMN concentration ([1]; 0.75 hr after 500 mg/kg oral gavage, pre-dose 2.13) was 3.26 µg/g, the NAM concentration ([1]; 0.75 hr after 500 mg/kg oral gavage, pre-dose 52.5) was 206 µg/g and the NAD concentration ([1]; 0.75 hr after 500 mg/kg oral gavage, pre-dose 713) was 327 µg/g. For the same compound, the NAAD concentration ([1]; 0.75 hr after 500 mg/kg oral gavage) was “BDL”, the NMN concentration ([1]; 1 hr after 500 mg/kg oral gavage, pre-dose 0.00637) was 0.00945 mmol/kg and the NAM concentration ([1]; 1 hr after 500 mg/kg oral gavage, pre-dose 0.430) was 1.48 mmol/kg. The NAD concentration ([1]; 1 hr after 500 mg/kg oral gavage, pre-dose 1.08) was 0.575 mmol/kg, the NMN concentration ([1]; 1 hr after 500 mg/kg oral gavage, pre-dose 2.13) was 3.16 µg/g and the NAM concentration ([1]; 1 hr after 500 mg/kg oral gavage, pre-dose 52.5) was 181 µg/g. The NAD concentration ([1]; 1 hr after 500 mg/kg oral gavage, pre-dose 713) was 381 µg/g, the NAAD concentration ([1]; 1 hr after 500 mg/kg oral gavage) was “BDL” and the NMN concentration ([1]; 2 hr after 500 mg/kg oral gavage, pre-dose 0.00637) was 0.00706 mmol/kg. For the same compound, the NAM concentration ([1]; 2 hr after 500 mg/kg oral gavage, pre-dose 0.430) was 0.660 mmol/kg, the NAD concentration ([1]; 2 hr after 500 mg/kg oral gavage, pre-dose 1.08) was 1.19 mmol/kg and the NMN concentration ([1]; 2 hr after 500 mg/kg oral gavage, pre-dose 2.13) was 2.36 µg/g. For the same compound, the NAM concentration ([1]; 2 hr after 500 mg/kg oral gavage, pre-dose 52.5) was 80.6 µg/g, the NAD concentration ([1]; 2 hr after 500 mg/kg oral gavage, pre-dose 713) was 787 µg/g and the NMN concentration ([1]; 4 hr after 500 mg/kg oral gavage, pre-dose 0.00637) was 0.0146 mmol/kg. For the same compound, the NAM concentration ([1]; 4 hr after 500 mg/kg oral gavage, pre-dose 0.430) was 0.791 mmol/kg, the NAD concentration ([1]; 4 hr after 500 mg/kg oral gavage, pre-dose 1.08) was 2.23 mmol/kg and the NMN concentration ([1]; 4 hr after 500 mg/kg oral gavage, pre-dose 2.13) was 4.87 µg/g. For the same compound, the NAM concentration ([1]; 4 hr after 500 mg/kg oral gavage, pre-dose 52.5) was 96.5 µg/g, the NAD concentration ([1]; 4 hr after 500 mg/kg oral gavage, pre-dose 713) was 1478 µg/g and the NMN concentration ([1]; 8 hr after 500 mg/kg oral gavage, pre-dose 0.00637) was 0.0250 mmol/kg. For the same compound, the NAM concentration ([1]; 8 hr after 500 mg/kg oral gavage, pre-dose 0.430) was 0.609 mmol/kg, the NAD concentration ([1]; 8 hr after 500 mg/kg oral gavage, pre-dose 1.08) was 4.92 mmol/kg and the NMN concentration ([1]; 8 hr after 500 mg/kg oral gavage, pre-dose 2.13) was 8.34 µg/g. It also gave an NAM concentration ([1]; 8 hr after 500 mg/kg oral gavage, pre-dose 52.5) of 74.3 µg/g, an NAD concentration ([1]; 8 hr after 500 mg/kg oral gavage, pre-dose 713) of 3267 µg/g and an NMN concentration ([1]; 24 hr after 500 mg/kg oral gavage, pre-dose 0.00637) of 0.00459 mmol/kg. It also gave an NAM concentration ([1]; 24 hr after 500 mg/kg oral gavage, pre-dose 0.430) of 0.381 mmol/kg, an NAD concentration ([1]; 24 hr after 500 mg/kg oral gavage, pre-dose 1.08) of 1.10 mmol/kg and an NMN concentration ([1]; 24 hr after 500 mg/kg oral gavage, pre-dose 2.13) of 1.53 µg/g. The NAM concentration ([1]; 24 hr after 500 mg/kg oral gavage, pre-dose 52.5) was 46.6 µg/g, the NAD concentration ([1]; 24 hr after 500 mg/kg oral gavage, pre-dose 713) was 731 µg/g and the NAAD concentration ([1]; 24 hr after 500 mg/kg oral gavage) was “BDL”. For the same compound, the “% AUC Extrap of transcyclohexyl NaR dimer” value ([2]; 500 mg/kg oral gavage) was 0.00%, the “AUC(0-x) of transcyclohexyl NaR dimer” value ([2]; 500 mg/kg oral gavage) was 3.05 µg·h/g and the “AUC(0-∞) of transcyclohexyl NaR dimer” value ([2]; 500 mg/kg oral gavage) was 3.05 µg·h/g. For the same compound, the “transcyclohexyl NaR dimer concentration” value ([2]; 0.25 hr after 500 mg/kg oral gavage, pre-dose BQL) was 0.0125 mmol/kg, the “transcyclohexyl NaR dimer concentration” value ([2]; 0.75 hr after 500 mg/kg oral gavage, pre-dose BQL) was 0.000387 mmol/kg and the “transcyclohexyl NaR dimer concentration” value ([2]; 1 hr after 500 mg/kg oral gavage, pre-dose BQL) was 0.000275 mmol/kg. The “transcyclohexyl NaR dimer concentration” value ([2]; 2 hr after 500 mg/kg oral gavage, pre-dose BQL) was 0.0000706 mmol/kg, the “transcyclohexyl NaR dimer concentration” value ([2]; 4 hr after 500 mg/kg oral gavage, pre-dose BQL) was “BQL” and the “transcyclohexyl NaR dimer concentration” value ([2]; 8 hr after 500 mg/kg oral gavage, pre-dose BQL) was “BQL”. For the same compound, the “transcyclohexyl NaR dimer concentration” value ([2]; 24 hr after 500 mg/kg oral gavage, pre-dose BQL) was “BQL”, the Cmax ([2]; C57BL/6, mouse, 500 mg/kg oral gavage, read-out: Cmax of transcyclohexyl NaR dimer) was 10600 ng/g and the Tmax ([2]; C57BL/6, mouse, 500 mg/kg oral gavage, read-out: tmax of transcyclohexyl NaR dimer) was 15 min. It also gave a half-life ([2]; C57BL/6, mouse, 500 mg/kg oral gavage, regression points 0.75, 1, 2 h, read-out: t½ of transcyclohexyl NaR dimer (converted)) of 30.5 min, a concentration at 0.25 h ([2]; C57BL/6, mouse, 0.25 hr after 500 mg/kg oral gavage, pre-dose BQL, read-out: transcyclohexyl NaR dimer concentration) of 10600 ng/g and a concentration at 0.75 h ([2]; C57BL/6, mouse, 0.75 hr after 500 mg/kg oral gavage, pre-dose BQL, read-out: transcyclohexyl NaR dimer concentration) of 327 ng/g. The concentration at 1 h ([2]; C57BL/6, mouse, 1 hr after 500 mg/kg oral gavage, pre-dose BQL, read-out: transcyclohexyl NaR dimer concentration) was 232 ng/g and the concentration at 2 h ([2]; C57BL/6, mouse, 2 hr after 500 mg/kg oral gavage, pre-dose BQL, read-out: transcyclohexyl NaR dimer concentration) was 60 ng/g.
